According to ChEMBL document CHEMBL1134429, “The development of a potential single photon emission computed tomography (SPECT) imaging agent for the corticotropin-releasing hormone receptor type” (Bioorg Med Chem Lett, 2001):

Target: T1, Corticotropin-releasing factor receptor 1 (Rattus norvegicus, UniProt P35353)
T1 sequence (P35353 whole entry): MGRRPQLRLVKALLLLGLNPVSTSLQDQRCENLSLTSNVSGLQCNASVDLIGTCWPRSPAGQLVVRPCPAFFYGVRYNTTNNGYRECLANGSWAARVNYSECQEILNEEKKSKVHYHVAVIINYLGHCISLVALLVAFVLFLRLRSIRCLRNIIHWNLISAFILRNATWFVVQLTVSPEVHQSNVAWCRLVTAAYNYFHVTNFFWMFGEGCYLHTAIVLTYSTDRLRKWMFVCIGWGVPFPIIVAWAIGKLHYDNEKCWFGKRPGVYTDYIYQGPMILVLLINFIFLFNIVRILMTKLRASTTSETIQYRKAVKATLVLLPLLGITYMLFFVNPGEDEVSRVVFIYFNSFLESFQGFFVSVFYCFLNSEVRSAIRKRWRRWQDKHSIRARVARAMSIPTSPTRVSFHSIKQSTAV
Test: Binding affinity towards Corticotropin releasing hormone receptor type 1 of rat cerebellum using [125I]Tyr-sauvagine as radioligand.
Type: tissue-based

| Ki [nM] | Compound |
| --- | --- |
| 14 | CCCN(CC1CC1)c1nc(C)nc(Nc2c(Cl)cc(I)cc2Cl)c1Cl |
| 31 | CCCN(CC1CC1)c1nc(C)nc(Nc2c(Cl)cc(Cl)cc2Cl)c1Cl |
